# ChEMBL document CHEMBL1149146, “Synthesis and biological evaluation of new 1,2-dihydro-4-hydroxy-2-oxo-3-quinolinecarboxamides for treatment of autoimmune disorders: structure-activity relationship” (2004)
# Experiments:
# Assay type in all cases: functional
# Mus musculus [1] = assay: Inhibition of acute experimental autoimmune encephalomyelitis in SJL/N mice by 1 mg/kg/day p.o./s.c.; details: route oral
# Mus musculus [2] = assay: Inhibition of acute experimental autoimmune encephalomyelitis in SJL/N mice by 0.2 mg/kg/day p.o./s.c.; details: po
# Mus musculus [3] = assay: Inhibition of acute experimental autoimmune encephalomyelitis in SJL/N mice by 5 mg/kg/day p.o./s.c.; details: route oral
# Mus musculus [4] = assay: Inhibition of acute experimental autoimmune encephalomyelitis (aEAE) induced in SJL/N mice at a dose of 1 mg/kg/day, (po)
# Mus musculus [5] = assay: Inhibition of acute experimental autoimmune encephalomyelitis in SJL/N mice by 0.2 mg/kg/day p.o.; details: route oral
# Mus musculus [6] = assay: Inhibition of acute experimental autoimmune encephalomyelitis (aEAE) induced in SJL/N mice at a dose of 1 mg/kg/day, (po) was determined; Inactive
# Mus musculus [7] = assay: Inhibition of acute experimental autoimmune encephalomyelitis (aEAE) induced in SJL/N mice at a dose of 0.2 mg/kg/day, (po) was determined; Inactive
# Mus musculus [8] = assay: Inhibition of acute experimental autoimmune encephalomyelitis (aEAE) induced in SJL/N mice at a dose of 5 mg/kg/day, (po) was determined; Inactive
# Mus musculus [9] = assay: Inhibition of acute experimental autoimmune encephalomyelitis (aEAE) induced in SJL/N mice at a dose of 5 mg/kg/day, (sc) was determined
# Mus musculus [10] = assay: Inhibition of acute experimental autoimmune encephalomyelitis in SJL/N mice by 5 mg/kg/day p.o.; details: route oral
# Mus musculus [11] = assay: Inhibition of acute experimental autoimmune encephalomyelitis (aEAE) induced in SJL/N mice at a dose of 5 mg/kg/day, (sc) was determined; Inactive
smiles,measurement,setting,value
CN(C(=O)c1c(O)c2cc(OC(F)(F)F)ccc2n(C)c1=O)c1ccccc1,inhibition in vivo at 1 mg/kg/day,Mus musculus [1],72%
same,inhibition in vivo at 0.2 mg/kg/day,Mus musculus [2],63%
same,inhibition in vivo at 5 mg/kg/day,Mus musculus [3],96%
COc1cccc2c1c(O)c(C(=O)N(C)c1ccc(Cl)cc1)c(=O)n2C,inhibition in vivo at 1 mg/kg/day,Mus musculus [1],70%
same,inhibition in vivo at 0.2 mg/kg/day,Mus musculus [2],77%
same,inhibition in vivo at 5 mg/kg/day,Mus musculus [3],89%
CCN(C(=O)c1c(O)c2c(Br)cccc2n(C)c1=O)c1ccccc1,inhibition in vivo at 1 mg/kg/day,Mus musculus [4],95%
same,inhibition in vivo at 0.2 mg/kg/day,Mus musculus [5],57%
CCN(C(=O)c1c(O)c2cc(C)ccc2n(C)c1=O)c1ccccc1,inhibition in vivo at 1 mg/kg/day,Mus musculus [6],< 35%
same,inhibition in vivo at 0.2 mg/kg/day,Mus musculus [7],< 35%
COc1cccc2c1c(O)c(C(=O)N(C)c1ccc(F)cc1F)c(=O)n2C,inhibition in vivo at 1 mg/kg/day,Mus musculus [4],88%
same,inhibition in vivo at 0.2 mg/kg/day,Mus musculus [5],76%
CN(C(=O)c1c(O)c2c(Oc3ccc(F)cc3)cccc2n(C)c1=O)c1ccccc1,inhibition in vivo at 1 mg/kg/day,Mus musculus [6],< 35%
same,inhibition in vivo at 5 mg/kg/day,Mus musculus [8],< 35%
Cc1ccc2c(O)c(C(=O)N(C)c3ccccc3)c(=O)n(C)c2c1,inhibition in vivo at 5 mg/kg/day,Mus musculus [9],53%
COc1cccc2c1c(O)c(C(=O)N(C)c1cccc(C(C)(C)C)c1)c(=O)n2C,inhibition in vivo at 1 mg/kg/day,Mus musculus [4],60%
same,inhibition in vivo at 0.2 mg/kg/day,Mus musculus [5],38%
same,inhibition in vivo at 5 mg/kg/day,Mus musculus [10],84%
CN(C(=O)c1c(O)c2cc(Cl)ccc2n(C)c1=O)c1ccccc1,inhibition in vivo at 1 mg/kg/day,Mus musculus [1],100%
same,inhibition in vivo at 0.2 mg/kg/day,Mus musculus [2],81%
same,inhibition in vivo at 5 mg/kg/day,Mus musculus [3],100%
CN(C(=O)c1c(O)c2ccc(C(F)(F)F)cc2n(C)c1=O)c1ccc(F)cc1,inhibition in vivo at 5 mg/kg/day,Mus musculus [9],35%
COc1cccc2c1c(O)c(C(=O)N(C)c1cccc(F)c1F)c(=O)n2C,inhibition in vivo at 1 mg/kg/day,Mus musculus [6],< 35%
same,inhibition in vivo at 0.2 mg/kg/day,Mus musculus [7],< 35%
CN(C(=O)c1c(O)c2c(C(F)(F)F)cccc2n(C)c1=O)c1ccccc1,inhibition in vivo at 1 mg/kg/day,Mus musculus [4],99%
same,inhibition in vivo at 5 mg/kg/day,Mus musculus [10],100%
CN(C(=O)c1c(O)c2ccc(Oc3ccccc3)cc2n(C)c1=O)c1ccc(F)cc1,inhibition in vivo at 5 mg/kg/day,Mus musculus [11],< 35%
COc1cccc2c1c(O)c(C(=O)N(C)c1ccccc1)c(=O)n2C,inhibition in vivo at 1 mg/kg/day,Mus musculus [1],95%
same,inhibition in vivo at 0.2 mg/kg/day,Mus musculus [2],79%
same,inhibition in vivo at 5 mg/kg/day,Mus musculus [3],96%
CN(C(=O)c1c(O)c2ccccc2n(-c2ccccc2)c1=O)c1ccccc1,inhibition in vivo at 5 mg/kg/day,Mus musculus [11],< 35%
CCN(C(=O)c1c(O)c2c(SC)cccc2n(C)c1=O)c1ccccc1,inhibition in vivo at 1 mg/kg/day,Mus musculus [4],73%
same,inhibition in vivo at 0.2 mg/kg/day,Mus musculus [5],51%
same,inhibition in vivo at 5 mg/kg/day,Mus musculus [10],99%
COc1ccc(N(C)C(=O)c2c(O)c3c(OC)cccc3n(C)c2=O)cc1,inhibition in vivo at 1 mg/kg/day,Mus musculus [4],84%
same,inhibition in vivo at 0.2 mg/kg/day,Mus musculus [5],78%
COc1ccccc1N(C)C(=O)c1c(O)c2c(OC)cccc2n(C)c1=O,inhibition in vivo at 1 mg/kg/day,Mus musculus [6],< 35%
same,inhibition in vivo at 0.2 mg/kg/day,Mus musculus [7],< 35%
COc1ccc2c(O)c(C(=O)N(C)c3ccccc3)c(=O)n(C)c2c1,inhibition in vivo at 5 mg/kg/day,Mus musculus [11],< 35%
CN(C(=O)c1c(O)c2cccc(C(F)(F)F)c2n(C)c1=O)c1ccc(Cl)cc1Cl,inhibition in vivo at 5 mg/kg/day,Mus musculus [11],< 35%
CCN(C(=O)c1c(O)c2cc(OC)ccc2n(C)c1=O)c1ccccc1,inhibition in vivo at 1 mg/kg/day,Mus musculus [1],37%
same,inhibition in vivo at 0.2 mg/kg/day,Mus musculus [2],39%
same,inhibition in vivo at 5 mg/kg/day,Mus musculus [3],84%
CCN(C(=O)c1c(O)c2c3c(ccc2n(C)c1=O)OCO3)c1ccccc1,inhibition in vivo at 1 mg/kg/day,Mus musculus [4],75%
same,inhibition in vivo at 0.2 mg/kg/day,Mus musculus [5],58%
same,inhibition in vivo at 5 mg/kg/day,Mus musculus [10],99%
COc1cccc2c(O)c(C(=O)N(C)c3ccccc3)c(=O)n(C)c12,inhibition in vivo at 5 mg/kg/day,Mus musculus [11],< 35%
CN(C(=O)c1c(O)c2c(Cl)cccc2n(C)c1=O)c1ccccc1,inhibition in vivo at 1 mg/kg/day,Mus musculus [1],99%
same,inhibition in vivo at 0.2 mg/kg/day,Mus musculus [2],91%
same,inhibition in vivo at 5 mg/kg/day,Mus musculus [3],100%
CCc1cccc2c1c(O)c(C(=O)N(CC)c1ccccc1)c(=O)n2C [PAQUINIMOD],inhibition in vivo at 1 mg/kg/day,Mus musculus [4],100%
same,inhibition in vivo at 0.2 mg/kg/day,Mus musculus [5],81%
CN(C(=O)c1c(O)c2cc(F)ccc2n(C)c1=O)c1ccc(F)cc1,inhibition in vivo at 1 mg/kg/day,Mus musculus [1],77%
same,inhibition in vivo at 5 mg/kg/day,Mus musculus [3],93%
CCN(C(=O)c1c(O)c2c(Cl)cccc2n(C)c1=O)c1ccccc1 [LAQUINIMOD],inhibition in vivo at 1 mg/kg/day,Mus musculus [1],92%
same,inhibition in vivo at 0.2 mg/kg/day,Mus musculus [2],66%
same,inhibition in vivo at 5 mg/kg/day,Mus musculus [3],96%
COc1cccc(N(C)C(=O)c2c(O)c3c(OC)cccc3n(C)c2=O)c1,inhibition in vivo at 1 mg/kg/day,Mus musculus [1],90%
same,inhibition in vivo at 0.2 mg/kg/day,Mus musculus [2],35%
same,inhibition in vivo at 5 mg/kg/day,Mus musculus [3],85%
